{"source": "paper PMC7591920", "about": "“A protein tertiary structure mimetic modulator of the Hippo signalling pathway” (Nature Communications, 2020)", "key": {"[1]": {"test_system": "RKO cells", "experiment": "Wound closure assay", "format": "cell-based", "experimental": "Ca. 100,000 RKO cells were seeded per well in a transparent ImageLock 96-well plate (#4379, Essen Bioscience) and treated with the samples the next day. Wound Healing Assay was performed using the IncuCyte® ZOOM system and the WoundMaker™ device (both Essen Bioscience). The scratch was performed according to manufacturer’s protocol and images were acquired every 2 h. Image-based analysis of wound closure was conducted using the IncuCyte ZOOM 2016B software (Essen Bioscience). Confluency within the wound area was normalized to the confluency at the time of scratch preparation and plotted using GraphPad Prism 6."}, "[2]": {"target": "T1, GST-hTEAD1 / biotin-VGL4 (Homo sapiens, UniProt P28347)", "T1 construct": "CDNA of hTEAD1(209–426) fused with an N-terminal GST tag; made in house; host or cells: Escherichia coli BL21 DE3 RIL(K+); bait peptide synthetic", "T1 sequence (P28347 209-426)": "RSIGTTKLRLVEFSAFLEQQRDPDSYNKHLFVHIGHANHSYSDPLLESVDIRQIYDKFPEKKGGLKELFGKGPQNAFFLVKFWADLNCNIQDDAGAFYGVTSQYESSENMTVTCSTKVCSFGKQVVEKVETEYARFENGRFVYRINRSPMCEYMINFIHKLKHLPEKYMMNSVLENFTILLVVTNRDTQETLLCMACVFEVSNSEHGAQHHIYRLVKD", "experiment": "Competition pull-down of GST-hTEAD1 with immobilised biotin-VGL4", "format": "biochemical", "conditions": "GST-hTEAD1 1 µM", "experimental": "Beads were then extensively washed with the incubation buffer followed by protein elution after boiling the beads at 95 °C for 10 min in 25 µL of SDS loading buffer. SDS PAGE was performed using standard methods and the gel was visualized after Coomassie staining with a Li-COR Fc Imager."}, "[3]": {"target": "T2, mTEAD4 (Mus musculus, UniProt Q62296)", "T2 construct": "Mouse TEAD4(210–427) cDNA fused with a 6x His-tag and a 3C protease cleavage site; 6x His-tag; 3C protease cleavage site; made in house; host or cells: E. coli BL21 DE3 RIL(K+)", "T2 sequence (Q62296 210-427)": "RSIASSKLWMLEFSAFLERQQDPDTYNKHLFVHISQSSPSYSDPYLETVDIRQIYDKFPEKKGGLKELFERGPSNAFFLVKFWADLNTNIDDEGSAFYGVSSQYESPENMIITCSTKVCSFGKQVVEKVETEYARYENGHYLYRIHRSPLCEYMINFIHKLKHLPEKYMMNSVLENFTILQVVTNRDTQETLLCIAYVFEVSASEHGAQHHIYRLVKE", "experiment": "SPR binding to immobilised mTEAD4", "conditions": "mTEAD4 amine-coupled on CM5, multi-cycle, steady-state fit 1:1 model, 10 mM HEPES 150 mM NaCl 0.05% Tween-20 pH 7.4, 0.3% DMSO, 20 °C, Fig. 1 values n = 1 replicate", "in_short": "(§1)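 Proteins amine-coupled (NHS/EDC) to CM5 chips from 10 mM MES pH 6.4; running buffer 10 mM HEPES, 150 mM NaCl, 0.05% Tween-20, pH 7.4, 20 °C, 30 µL min^−1. Multi-cycle kinetics: seven threefold analyte dilutions from 30 µM, 45 s contact, 6-min dissociation, reference-surface subtracted.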"}, "[4]": {"test_system": "rat heart cells", "experiment": "Cell toxicity assessment on rat heart cells in culture", "conditions": "c(peptide) = 10 µM", "experimental": "whole heart cells monitored by fluorescence microscopy after 90 minutes treatments (scale bar: 25 µm), number of […]\n4E as well as control compounds (SB203580, CHIR99021) on rat heart cells in culture (c(peptide) = 10 µM). Number of independent biological replicates: n = 6, error bars = SEM. […]\ncytometry analysis of live cells after 90 min incubation at 5 µM: Representative histogram plot, (-) DMSO control). Source data are provided as a Source Data file.\n(1 picture or pasted object on this page, not shown here)"}, "[5]": {"test_system": "RKO cells", "experiment": "Sub-cellular (cytoplasmic, nuclear) peptide concentration in RKO cells by UPLC-MS", "conditions": "for Sub-cellular drug content, Cytoplasm / Sub-cellular drug content, Cytoplasm, Measured concentration / Sub-cellular drug content, Nuclear / Sub-cellular drug content, Nuclear, Measured concentration: n = 2", "method": "Peptides were incubated in RKO cells (ATCC, #CRL-2577) as follows: Experiment 1: RKO cells were incubated in 25 µM compound for 90 min and 24 h. Experiment 2: RKO cells were incubated in 25 µM for 30 min or 72 h. Following peptide incubation, the cells were washed twice with PBS, trypsinized and pelleted. The pellets were lysed in RIPA buffer (Perkin Elmer) for total lysis, or CelLytic NuCLEAR Extraction Kit (SIGMA) for subcellular fractionation. Total protein quantification BCA (Pierce) was performed prior to MS analysis to normalize sample data. Total and fractionated cell lysates were analysed by quantitative UPLC-MS utilizing a Waters Xevo TQ-XS (WBA0259) and an Acquity UPLC system from Waters consisting of Sample Manager (M16UFL953M), Acquity PDA (F17UPD457A), Column Oven (E17CMP703G) and Binary Solvent Manager (E17BUR621G). […] Chromatograms of the samples were treated similarly, and by linear regression (1/x) an in-cell concentration was established in the re-suspended cell lysate using the Waters MassLynx TargetLynx^TM product."}, "[6]": {"test_system": "YAP–TEAD interaction", "experiment": "Proximity ligation assay (PLA) in RKO cells", "format": "cell-based", "conditions": "24 h incubation, c = 30 µM", "experimental": "Ca. 5000 RKO cells were seeded per well in black 96-well plates with glass bottom (#5241-20, MoBiTec) and treated with the peptides or DMSO as vehicle control. After 24 h, the cells were fixed for 10 min using 4% paraformaldehyde (#UN2209, AppliChem) in PBS prior to permeabilization with 0.1% Triton X-100 (#39795.02, Serva) in PBS for 10 min. […] The cells were treated with the corresponding PLA probes (donkey anti-rabbit PLUS, #DUO92002, dilution 1:5; donkey anti-mouse MINUS, #DUO92004, dilution 1:5, Sigma-Aldrich) and with the Duolink In Situ Detection Orange Kit (#DUO92007, Sigma-Aldrich) for ligation and amplification according to the manufacturer's instructions. Finally, the cells were treated with 1 μg mL^-1 DAPI (#D9542, Sigma-Aldrich) to stain nuclei for further microscopy analysis. Images were acquired using a Zeiss Observer Z1 microscope with an 63× oil objective. Picture data were analysed by the ImageJ “analyze particles” macro to count PLA spots per cell. Ten pictures were counted for each condition per experiment. Statistical analysis was performed using Student's paired t test."}, "[7]": {"target": "T3, GST-hTEAD1 (Homo sapiens, UniProt P28347)", "T3 construct": "CDNA of hTEAD1(209–426) fused with an N-terminal GST tag; made in house; host or cells: Escherichia coli BL21 DE3 RIL(K+)", "T3 sequence (P28347 209-426)": "as the sequence (P28347 209-426) above", "experiment": "SPR binding to immobilised GST-hTEAD1", "conditions": "GST-hTEAD1 amine-coupled on CM5, multi-cycle, steady-state fit 1:1 model, 10 mM HEPES 150 mM NaCl 0.05% Tween-20 pH 7.4, 0.3% DMSO, 20 °C, Fig. 1 values n = 1 replicate", "in_short": "as §1"}, "[8]": {"conditions": "25 µM compound, 90 minutes, fractionation, UPLC-MS"}, "[9]": {"conditions": "25 µM compound, 24 hours, fractionation, UPLC-MS"}}, "note": "Bridge positions count the residues as written; N and C are the ends. Square brackets hold non-standard residues; d marks the D form. Peptide text beside a SMILES is read from it. AEEA = NCCOCCOCC(=O)O", "data": [{"molecule": "CC[C@H](C)[C@@H]1NC(=O)[C@H](CCC(N)=O)NC(=O)[C@H](CC(C)C)NC(=O)[C@H](Cc2c[nH]c3ccccc23)NC(=O)[C@H]([C@@H](C)O)NC(=O)[C@H](CC(=O)O)NC(=O)CNC(=O)[C@H](CC(C)C)NC(=O)[C@H](C)NC(=O)[C@H](CCCCN)NC(=O)[C@H](C)NC(=O)[C@H](Cc2ccccc2)NC(=O)[C@H](Cc2c[nH]cn2)NC(=O)[C@H](CC(=O)O)NC(=O)[C@@H](NC(=O)[C@@H](NC(=O)[C@H](CO)NC(=O)COCCOCCNC(=O)[C@H](CCC(N)=O)NC(=O)[C@@H]2CCCN2C(=O)[C@H](CCCNC(=N)N)NC(=O)[C@H](CCCNC(=N)N)NC(=O)[C@H](CCCNC(=N)N)NC(=O)[C@H](CCC(N)=O)NC(=O)[C@H](CCCNC(=N)N)NC(=O)[C@H](CCCNC(=N)N)NC(=O)[C@H](CCCCN)NC(=O)[C@H](CCCCN)NC(=O)[C@H](CCCNC(=N)N)NC(=O)CNC(C)=O)C(C)C)CCC(=O)NCCCC[C@@H](C(=O)N[C@@H](C)C(=O)N[C@@H](C)C(N)=O)NC1=O", "note": "[compound 7] (Ac-GRKKRRQRRRPQ[AEEA]SVEDHFAKALGDTWLQIKAA-NH2; lactam 16-31)", "values": [{"measurement": "Effect on wound closure", "setting": "[1]; c = 30 µM, 48 h treatment", "value": "considerably increased wound closure"}, {"measurement": "Wound closure (%)", "setting": "[1]; dose-dependent, 1 µM peptide 7, mean of n = 3", "value": 53.07, "unit": "%"}, {"measurement": "Wound closure (%)", "setting": "[1]; dose-dependent, 5 µM peptide 7, mean of n = 3", "value": 61.51, "unit": "%"}, {"measurement": "Wound closure (%)", "setting": "[1]; dose-dependent, 10 µM peptide 7, mean of n = 3", "value": 67.72, "unit": "%"}, {"measurement": "Wound closure (%)", "setting": "[1]; dose-dependent, 30 µM peptide 7, mean of n = 3", "value": 76.06, "unit": "%"}, {"measurement": "Wound closure (%)", "setting": "[1]; time-dependent, 12 hours, mean of n = 3", "value": 26.59, "unit": "%"}, {"measurement": "Wound closure (%)", "setting": "[1]; time-dependent, 24 hours, mean of n = 3", "value": 49.56, "unit": "%"}, {"measurement": "Wound closure (%)", "setting": "[1]; time-dependent, 36 hours, mean of n = 3", "value": 65.47, "unit": "%"}, {"measurement": "Wound closure (%)", "setting": "[1]; time-dependent, 48 hours, mean of n = 3", "value": 75.27, "unit": "%"}, {"measurement": "required concentration for VGL4 competition in the pull-down assay", "setting": "[2]; immobilised biotin-VGL4, 2.5 h", "value": "ca. 100 µM"}, {"measurement": "Competition with TEAD–VGL4 complex formation (pull-down)", "setting": "[2]; peptide 50 and 200 µM, biotin-VGL4 on streptavidin beads, 2.5 h, SDS-PAGE, n = 1", "value": "compete with TEAD–VGL4 complex formation"}, {"measurement": "Kd", "setting": "[3]", "value": "1.5 ± 1", "unit": "µM"}, {"measurement": "Total cell number (% DMSO control)", "setting": "[4]; raw data replicate 1", "value": 121.364, "unit": "% DMSO control"}, {"measurement": "Total cell number (% DMSO control)", "setting": "[4]; raw data replicate 2", "value": 169.336, "unit": "% DMSO control"}, {"measurement": "Total cell number (% DMSO control)", "setting": "[4]; raw data replicate 3", "value": 227.316, "unit": "% DMSO control"}, {"measurement": "Total cell number (% DMSO control)", "setting": "[4]; raw data replicate 4", "value": 141.087, "unit": "% DMSO control"}, {"measurement": "Total cell number (% DMSO control)", "setting": "[4]; raw data replicate 5", "value": 122.138, "unit": "% DMSO control"}, {"measurement": "Total cell number (% DMSO control)", "setting": "[4]; raw data replicate 6", "value": 106.984, "unit": "% DMSO control"}, {"measurement": "Sub-cellular drug content, Cytoplasm", "setting": "[5]; [8]", "value": 0.07968, "unit": "nmol"}, {"measurement": "Sub-cellular drug content, Cytoplasm, Measured concentration", "setting": "[5]; [8]", "value": 265.5865, "unit": "nM"}, {"measurement": "Sub-cellular drug content, Nuclear", "setting": "[5]; [8]", "value": 0.1853, "unit": "nmol"}, {"measurement": "Sub-cellular drug content, Nuclear, Measured concentration", "setting": "[5]; [8]", "value": "123.5385 ± 6.5745", "unit": "nM"}, {"measurement": "Sub-cellular drug content, Cytoplasm", "setting": "[5]; [9]", "value": 0.04677, "unit": "nmol"}, {"measurement": "Sub-cellular drug content, Cytoplasm, Measured concentration", "setting": "[5]; [9]", "value": "155.914 ± 40.331", "unit": "nM"}, {"measurement": "Sub-cellular drug content, Nuclear", "setting": "[5]; [9]", "value": 0.06065, "unit": "nmol"}, {"measurement": "Sub-cellular drug content, Nuclear, Measured concentration", "setting": "[5]; [9]", "value": "202.161 ± 23.082", "unit": "nM"}, {"measurement": "loss of cytosolic concentration between 90 min and 24 h incubation", "setting": "[5]; 25 µM, authors' response in peer review file", "value": 47, "unit": "%"}, {"measurement": "pMol/mg", "setting": "[5]; Cytoplasm, 25 µM compound, 90 minutes (1.5 hrs), replicate 1", "value": 104.1, "unit": "pMol/mg"}, {"measurement": "pMol/mg", "setting": "[5]; Cytoplasm, 25 µM compound, 90 minutes (1.5 hrs), replicate 2", "value": 74.3, "unit": "pMol/mg"}, {"measurement": "pMol/mg", "setting": "[5]; Cytoplasm, 25 µM compound, 24 hours, replicate 1", "value": 73.3, "unit": "pMol/mg"}, {"measurement": "pMol/mg, Mean", "setting": "[5]; Nuclear, 25 µM compound, 90 minutes (1.5 hrs), mean of 2 replicates", "value": 231.15, "unit": "pMol/mg"}, {"measurement": "pMol/mg", "setting": "[5]; Nuclear, 25 µM compound, 24 hours, replicate 1", "value": 336.5, "unit": "pMol/mg"}, {"measurement": "Cytoplasmic concentration of peptide", "setting": "[5]; cytoplasmic fraction, UPLC-MS, mean of n = 2", "value": "89.2 pMols/mg of protein"}, {"measurement": "Nuclear concentration of peptide", "setting": "[5]; nuclear fraction, UPLC-MS, mean of n = 2", "value": "209 pMols/mg of protein"}, {"measurement": "Detection in cytoplasmic and nuclear fractions", "setting": "[5]; unlabelled peptide 25 µM, 90 min and 24 h, fractionation, UPLC-MS", "value": "found in both compartments"}, {"measurement": "Effect on YAP–TEAD complexes (PLA)", "setting": "[6]", "value": "an increase in YAP–TEAD complexes"}, {"measurement": "Kd", "setting": "[7]", "value": "0.83 ± 0.78", "unit": "µM"}]}]}
